Common to all, as to assay: Thermal shift binding assay
For test [1], the system named is RNA3WJ_1.0.0_5IB_3FAM (cis 3WJ with one unpaired nucleotide). The following applies: RNA3WJ_1.0.0_5IB_3FAM; for Melting temp [° C.] + cmpd / Temp. Shift [° C.]: 1 μM RNA, 8 μM compound, 1% DMSO, 10 mM CacoK pH 7.2, 30 mM NaCl. The text has this:
(§1) Purpose: Test binding of compounds for RNA three way junction (for example, a construct of 38 nt). Thermal shift assay based on established fluorescence quenching assay utilizing FAM as fluorescence tag and Iowa Black as quencher. Tags were attached at the 3′ and 5′ end, respectively. Stable formation of 3WJ upon compound binding would lead to quenching of the FAM fluorescence due to close proximity of the Iowa Black tag. Thermal unfolding leads to increase of fluorescence emission. Assay readout: FAM (465-510 nm) Thermal Shift.
(§2) Assay sample buffer used: 10 mM CacoK pH 7.2, 30 mM NaCl. Buffer preparation in Dnase/Rnase Free distilled water (Gibco Life Technologies).
(§3) Tool compounds provided as dry powder are prepared as 50 mM stock solution in 100% d6-DMSO. Stock solutions of 50 mM concentration in d6-DMSO are stored at RT.
(§4) Sample plate: Roche, Light Cycler480 Multiwell Plate96, white, REF 04729692001. (Dilution plate: Greiner REF 781101, PS-Microplate, 384 well, clear). Thermal Shift device: Roche, Light Cycler480.
(§5) Daily fresh (10 ml): 1 ml 100 mM CacoK pH 7.2 and 0.3 ml 1 M NaCl filled up to 10 ml with Dnase/Rnase Free distilled water.
(§6) Dilute the RNA 1:10 (final 10 μM) in Assay Buffer.
(§7) Heat up the diluted RNA up to 90° C. for 5 min (sealed Eppendorf Tube).
(§8) Cool down the RNA probe slowly to RT.
(§9) Dilute the compounds to 800 μM in DMSO (Assay: 8 μM).
(§10) 78.4 μL Assay Buffer are pipetted into Greiner REF 781101, PS-Microplate, 384 (each well needed).
(§11) Add 0.8 μL of the RNA-Solution ([…]).
(§12) Add 0.8 μL Compound-Solution ([…]).
(§13) Final concentrations in the sample: 1 μM RNA, 8 μM compound, 1% DMSO
(§14) Pipet 20 μL Sample Solution into Roche, Light Cycler480 Multiwell Plate96, white, REF 04729692001.
(§15) When sample transfer is finished, seal the plate with a clear topseal (part of REF 04729692001).
(§16) Centrifuge the plate with a table-top device to spin down the samples.
(§17) Measure the 96 plate with the LightCycler480 (Channel: 480/510 nm; Temperature: 41-91° C.).
(§18) Analyse measurement-data with the MeltingCurveGenotyping Mode.
(§19) Settings: Acquisition mode: continuous; Ramp rate: 0.1 C.°/sec; Acquisition: 6/C.° Melt Curve Genotyping for All Samples
(§20) Melting curves analysis show melting temperature (Tm) of ˜51° C. Range of RNA concentrations was tested and assay window was determined (conc. range of 0.5-1 μM yields best results). The choice of buffer also affected the Tm. RNA constructs were tested under different buffer conditions (especially in presence of salt) in the thermal shift assay. […] CacoK with 30 mM salt at 1 μM RNA conc. was used to assess compound effects on 3WJ stability. […] These conditions were used for screening test compounds.
(§21) Compounds Ark0000013 and Ark0000014 were also tested in the thermal shift assay against three RNA 3WJ constructs, A) RNA3WJ_1.0.0_5IB_3FAM (cis 3WJ with one unpaired nucleotide); B) Split3WJ.1_up_5IB+Split3WJ.1_down_3FAM (trans 3WJ as 1:1 mix); and C) Split3WJ.2_up_5IB+Split3WJ.2_down_3FAM (trans 3WJ as 1:1 mix).

The test system of test [2] is Split3WJ.1_up_5IB+Split3WJ.1_down_3FAM (trans 3WJ as 1:1 mix; Split3WJ_1). The conditions noted are these: Split3WJ_1 (trans 3WJ), 1 μM RNA, 8 μM compound.
Source text: as §1, §2, §3, §4, §5, §6, §7, §8, §9, §10, §11, §12, §13, §14, §15, §16, §17, §18, §19, §20, §21

Test [3] concerns Split3WJ.2_up_5IB+Split3WJ.2_down_3FAM (trans 3WJ as 1:1 mix; Split3WJ_2). The conditions noted are these: Split3WJ_2 (trans 3WJ), 1 μM RNA, 8 μM compound.
Source text: as §1, §2, §3, §4, §5, §6, §7, §8, §9, §10, §11, §12, §13, §14, §15, §16, §17, §18, §19, §20, §21

The structures appear in SMILES notation.

On to `CN(CCCN)CCCNC(=O)c1ccc2c(c1)C1c3cc(C(=O)NCCCN(C)CCCN)ccc3C2c2ccc(C(=O)NCCCN(C)CCCN)cc21` [Ark0000013, N^2,N^7,N^15-tris(3-((3-aminopropyl)(methyl)amino)propyl)-9,10-dihydro-9,10-[1,2]benzenoanthracene-2,7,15-tricarboxamide], for which the “Melting temp [° C.] + cmpd” value stood at 87.0 °C in test [1], 58.2 °C in test [2] and 56.9 °C in test [3]. Besides, the “Temp. Shift [° C.]” value was 21.4 °C in test [1]; 20.4 °C in test [2]; ~21 °C in test [2] (listed as Ark000013); 12.2 °C in test [3]; ~13 °C in test [3] (listed as Ark000013). Further, the “Effect in the melting curves (in words)” value in test [1] (FIG. 111, listed as Ark000013) is “significant effect”.

As for `NCCCCCCCNC(=O)c1ccc2c(c1)C1c3cc(C(=O)NCCCCCCCN)ccc3C2c2ccc(C(=O)NCCCCCCCN)cc21` [Ark0000014, N^2,N^7,N^15-tris(7-aminoheptyl)-9,10-dihydro-9,10-[1,2]benzenoanthracene-2,7,15-tricarboxamide], the “Melting temp [° C.] + cmpd” value in test [1] is 68.1 °C; in test [1] (listed as Ark000014) it was 68.4 °C; in test [2] it was 37.8 °C; in test [2] (listed as Ark000014) it was 38.8 °C; in test [3], 44.0 °C; in test [3] (listed as Ark000014) it was 44.7 °C. Also, the “Temp. Shift [° C.]” value in test [1] is 2.5 °C; in test [1] (listed as Ark000014), ~3 °C; in test [2], 0.3 °C; in test [2] (listed as Ark000014) it was ~1 °C; in test [3] it was −0.3 °C; in test [3] (listed as Ark000014), ~1 °C.

Source of the values: patent US20220281860A1, “COMPOUNDS AND METHODS OF TREATING RNA-MEDIATED DISEASES” (Arrakis Therapeutics, Inc., priority 2016, published 2022).
